IC50 data for 40 molecules are collected here from patent publication US10335399B2, “Chromane, isochromane and dihydroisobenzofuran derivatives as mGluR2—negative allosteric modulators, compositions, and their use” (Merck Sharp & Dohme Corp., priority 2016, dated 2019).

A value given as a limit tells only on which side of the number the result lay.

The experiment deals with recombinant human mGluR2 (Homo sapiens (Human), UniProt Q14416). Briefly: FLIPR Ca2+ mobilization assay: inhibition of glutamate-dependent mGluR2 activity. The experiment is classed as cell-based. The note with it: CHO dhfr- cells stably expressing recombinant human mGluR2 and Gα16, Fluo-4 AM, FLIPR384; inhibition of response to 2,500 nM glutamate. How it is done:
Inhibition constants (IC50s; the concentration of compound required to provide 50% of maximal activity) are determined as follows. The compounds of the invention were tested in a fluorescence laser imaging plate reader based assay. This assay is a common functional assay to monitor Ca^2+ mobilization in whole cells expressing recombinant receptor coupled with a promiscuous G-protein. CHO (Chinese hamster ovary) dhfr− cells stably expressing recombinant human mGluR2 and Gα16 loaded with Fluo-4 AM (Invitrogen, Carlsbad Calif., USA) were treated with various concentrations of each of the tested compounds of the invention and the Ca^2+ response was monitored on a FLIPR384 instrument (Molecular Devices, Sunnydale Calif., USA). […] The maximum calcium response at each concentration of compound for agonist or antagonist were plotted as dose responses and the curves were fitted with a four parameter logistic equation giving IC50 and Hill coefficient using the iterative non-linear curve fitting software ADA (Merck & Co., Inc.). Data in the following table lists the activity of each compound to inhibit glutamate-dependent mGluR2 activity in this cellular assay.

Chain of recombinant human mGluR2 (Q14416 19-872): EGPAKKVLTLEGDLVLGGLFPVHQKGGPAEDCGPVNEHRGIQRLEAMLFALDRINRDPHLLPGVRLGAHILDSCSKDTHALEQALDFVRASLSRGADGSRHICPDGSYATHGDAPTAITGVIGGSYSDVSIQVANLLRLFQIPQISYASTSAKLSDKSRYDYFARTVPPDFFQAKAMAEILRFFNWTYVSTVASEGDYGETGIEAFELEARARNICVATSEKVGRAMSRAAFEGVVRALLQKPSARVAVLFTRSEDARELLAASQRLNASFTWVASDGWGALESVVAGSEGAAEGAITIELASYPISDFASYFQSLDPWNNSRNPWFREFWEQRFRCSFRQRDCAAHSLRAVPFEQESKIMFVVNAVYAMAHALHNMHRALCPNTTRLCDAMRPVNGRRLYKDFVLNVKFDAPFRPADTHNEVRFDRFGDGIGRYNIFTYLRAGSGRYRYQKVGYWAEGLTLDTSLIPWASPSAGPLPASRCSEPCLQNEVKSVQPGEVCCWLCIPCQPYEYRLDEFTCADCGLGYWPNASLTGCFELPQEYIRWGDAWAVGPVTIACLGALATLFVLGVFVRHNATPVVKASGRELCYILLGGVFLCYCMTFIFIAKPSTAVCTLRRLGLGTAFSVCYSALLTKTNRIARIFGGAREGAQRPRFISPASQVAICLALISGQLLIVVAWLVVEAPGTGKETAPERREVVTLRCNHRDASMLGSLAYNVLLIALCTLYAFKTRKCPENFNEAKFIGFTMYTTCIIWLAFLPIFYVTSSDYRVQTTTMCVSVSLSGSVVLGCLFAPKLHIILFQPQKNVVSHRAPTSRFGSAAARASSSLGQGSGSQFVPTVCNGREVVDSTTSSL

Broadly, the IC50 is the concentration that gives 50% inhibition. For `NC(=O)c1cc(-c2ccc(F)cc2F)c2c(n1)[C@@H]1CC[C@H](C2)O1` (single isomer, unassigned) [Example 1-2B], the IC50 worked out at 21 nM.

For `NC(=O)c1cc(-c2ccc(Cl)cc2F)c2c(n1)[C@H]1CC[C@@H](C2)O1` (single isomer, unassigned) [Example 1-3A, (6S,9R)- or (6R,9S)-4-(4-chloro-2-fluorophenyl)-6,7,8,9-tetrahydro-5H-6,9-epoxycyclo-hepta[b]pyridine-2-carboxamide], the IC50 amounted to 65 nM.

`NC(=O)c1cc(-c2ccc(Cl)cc2F)c2c(n1)[C@@H]1CC[C@H](C2)O1` (single isomer, unassigned) [Example 1-3B, (6R,9S)- or (6S,9R)-4-(4-chloro-2-fluorophenyl)-6,7,8,9-tetrahydro-5H-6,9-epoxycyclo-hepta[b]pyridine-2-carboxamide]: the 50% inhibitory concentration (IC50) was 12 nM.

Consider `Cn1cc(-c2cc(C(N)=O)nc3c2CC2CCC3O2)cn1` (single isomer, unassigned) [Example 1-4A, (6R,9S)- or (6S,9R)-4-(1-methyl-1H-pyrazol-4-yl)-6,7,8,9-tetrahydro-5H-6,9-epoxycyclo-hepta[b]pyridine-2-carboxamide], for which the IC50 was above 3000 nM.

Turning to `Cn1cc(-c2cc(C(N)=O)nc3c2CC2CCC3O2)cn1` (single isomer, unassigned) [Example 1-4B, (6S,9R)- or (6R,9S)-4-(1-methyl-1H-pyrazol-4-yl)-6,7,8,9-tetrahydro-5H-6,9-epoxycyclo-hepta[b]pyridine-2-carboxamide], the IC50 was 1770 nM.

Consider `NC(=O)c1cc(-c2cnn(C(F)F)c2)c2c(n1)C1CCC(C2)O1` (single isomer, unassigned) [Example 1-5A, (6R,9S)- or (6S,9R)-4-(1-(difluoromethyl)-1H-pyrazol-4-yl)-6,7,8,9-tetrahydro-5H-6,9-epoxycyclo-hepta[b]pyridine-2-carboxamide], for which the IC50 is above 3000 nM.

Turning to `NC(=O)c1cc(-c2cnn(C(F)F)c2)c2c(n1)C1CCC(C2)O1` (single isomer, unassigned) [Example 1-5B, (6S,9R)- or (6R,9S)-4-(1-(difluoromethyl)-1H-pyrazol-4-yl)-6,7,8,9-tetrahydro-5H-6,9-epoxycyclo-hepta[b]pyridine-2-carboxamide], the IC50 stood at 326 nM.

For the molecule `NC(=O)c1cc(-c2ncc(F)cc2F)c2c(n1)[C@H]1CC[C@@H](C2)O1` (single isomer, unassigned) [Example 1-6A], the half-maximal inhibitory concentration (IC50) is above 3000 nM.

On to `NC(=O)c1cc(-c2ncc(F)cc2F)c2c(n1)[C@@H]1CC[C@H](C2)O1` (single isomer, unassigned) [Example 1-6B], for which the IC50 is 1800 nM.

`NC(=O)c1cc(-c2ncc(Cl)cc2F)c2c(n1)[C@H]1CC[C@@H](C2)O1` (single isomer, unassigned) [Example 1-7A]: the half-inhibitory concentration (IC50) was above 3000 nM.

As to `NC(=O)c1cc(-c2ncc(Cl)cc2F)c2c(n1)[C@@H]1CC[C@H](C2)O1` (single isomer, unassigned) [Example 1-7B], the IC50 was determined as 172 nM.

Turning to `NC(=O)c1cc(-c2ccc(F)cc2F)c2c(n1)O[C@@H](CO)CC2` (single isomer, unassigned) [Example 2-1B], the IC50 worked out at 179 nM.

For `CC(C)[C@@H]1CCc2c(-c3ccc(F)cc3F)cc(C(N)=O)nc2O1` (single isomer, unassigned) [Example 2-4A], the IC50 was determined as 20 nM.

Regarding `CC(C)[C@H]1CCc2c(-c3ccc(F)cc3F)cc(C(N)=O)nc2O1` (single isomer, unassigned) [Example 2-4B], the IC50 came out at 69 nM.

Take `C[C@@H]1CCc2c(-c3ccc(F)cc3F)cc(C(N)=O)nc2O1` (single isomer, unassigned) [Example 2-6A]: the half-inhibitory concentration (IC50) was 10 nM.

Consider `C[C@H]1CCc2c(-c3ccc(F)cc3F)cc(C(N)=O)nc2O1` (single isomer, unassigned) [Example 2-6B], for which the IC50 amounted to 26 nM.

Regarding `C[C@@]1(COC(F)F)CCc2c(-c3ccc(F)cc3F)cc(C(N)=O)nc2O1` (single isomer, unassigned) [Example 2-8A], the 50% inhibitory concentration (IC50) came to 8 nM.

Take `C[C@]1(COC(F)F)CCc2c(-c3ccc(F)cc3F)cc(C(N)=O)nc2O1` (single isomer, unassigned) [Example 2-8B]: the IC50 stood at 14 nM.

Consider `C[C@H](OC(F)F)[C@@H]1CCc2c(-c3ccc(F)cc3F)cc(C(N)=O)nc2O1` (single isomer, unassigned) [Example 2-9A], for which the concentration for half-maximal inhibition (IC50) amounted to 18 nM.

On to `NC(=O)c1cc(-c2ccc(F)cc2)c2c(n1)OC(COC(F)F)CC2` (single isomer, unassigned) [Example 3-2A, (S)- or (R)-2-((difluoro-methoxy)methyl)-5-(4-fluorophenyl)-3,4-dihydro-2H-pyrano[2,3-b]pyridine-7-carboxamide], for which the IC50 turned out to be 18 nM.

With `NC(=O)c1cc(-c2ccc(F)cc2)c2c(n1)OC(COC(F)F)CC2` (single isomer, unassigned) [Example 3-2B, (R)- or (S)-2-((difluoro-methoxy)methyl)-5-(4-fluorophenyl)-3,4-dihydro-2H-pyrano[2,3-b]pyridine-7-carboxamide], the 50% inhibitory concentration (IC50) was found to be 86 nM.

On to `Cc1ncc(-c2cc(C(N)=O)nc3c2CCC(COC(F)F)O3)s1` (single isomer, unassigned) [Example 3-3A, (S)- or (R)-2-((difluoro-methoxy)methyl)-5-(2-methylthiazol-5-yl)-3,4-dihydro-2H-pyrano[2,3-b]pyridine-7-carboxamide], for which the IC50 came out at 536 nM.

Take `Cc1ncc(-c2cc(C(N)=O)nc3c2CCC(COC(F)F)O3)s1` (single isomer, unassigned) [Example 3-3B, (R)- or (S)-2-((difluoro-methoxy)methyl)-5-(2-methylthiazol-5-yl)-3,4-dihydro-2H-pyrano[2,3-b]pyridine-7-carboxamide]: the IC50 amounted to 2520 nM.

As for `NC(=O)c1cc(-c2cnn(C(F)F)c2)c2c(n1)OC(COC(F)F)CC2` (single isomer, unassigned) [Example 3-4A, (S)- or (R)-2-((difluoro-methoxy)methyl)-5-(1-(difluoromethyl)-1H-pyrazol-4-yl)-3,4-dihydro-2H-pyrano[2,3-b]pyridine-7-carboxamide], the IC50 turned out to be 274 nM.

For `NC(=O)c1cc(-c2cnn(C(F)F)c2)c2c(n1)OC(COC(F)F)CC2` (single isomer, unassigned) [Example 3-4B, (R)- or (S)-2-((difluoro-methoxy)methyl)-5-(1-(difluoromethyl)-1H-pyrazol-4-yl)-3,4-dihydro-2H-pyrano[2,3-b]pyridine-7-carboxamide], the IC50 came out at 1490 nM.

`COC[C@@H]1CCc2c(-c3ccc(F)cc3F)cc(C(N)=O)nc2O1` (single isomer, unassigned) [Example 3-5A]: the IC50 amounted to 26 nM.

As to `COC[C@H]1CCc2c(-c3ccc(F)cc3F)cc(C(N)=O)nc2O1` (single isomer, unassigned) [Example 3-5B], the IC50 amounted to 27 nM.

With `NC(=O)c1cc(-c2ccc(F)cc2F)c2c(n1)O[C@H](CF)CC2` (single isomer, unassigned) [Example 3-6A], the IC50 came to 52 nM.

Consider `NC(=O)c1cc(-c2ccc(F)cc2F)c2c(n1)O[C@@H](CF)CC2` (single isomer, unassigned) [Example 3-6B], for which the IC50 came to 10 nM.

Regarding `NC(=O)c1cc(-c2ccc(F)cc2F)c2c(n1)O[C@H](CC(F)(F)F)CC2` (single isomer, unassigned) [Example 3-8A], the IC50 amounted to 12 nM.

As to `NC(=O)c1cc(-c2ccc(F)cc2F)c2c(n1)O[C@@H](CC(F)(F)F)CC2` (single isomer, unassigned) [Example 3-8B], the IC50 came to 24 nM.

For `C[C@@H]1Cc2c(-c3ccc(F)cc3F)cc(C(N)=O)nc2O[C@@H]1COC(F)F` (single isomer, unassigned) [Example 3-9A], the IC50 was found to be 7 nM.

`C[C@H]1Cc2c(-c3ccc(F)cc3F)cc(C(N)=O)nc2O[C@@H]1COC(F)F` (single isomer, unassigned) [Example 3-9B]: the half-maximal inhibitory concentration (IC50) was determined as 19 nM.

With `C[C@H]1Cc2c(-c3ccc(F)cc3F)cc(C(N)=O)nc2O[C@H]1COC(F)F` (single isomer, unassigned) [Example 3-9D], the half-maximal inhibitory concentration (IC50) came to 9 nM.

Regarding `CN(C[C@@H]1CCc2c(-c3ccc(F)cc3F)cc(C(N)=O)nc2O1)CC(F)(F)F` (single isomer, unassigned) [Example 4-1A], the IC50 stood at 25 nM.

On to `CN(C[C@H]1CCc2c(-c3ccc(F)cc3F)cc(C(N)=O)nc2O1)CC(F)(F)F` (single isomer, unassigned) [Example 4-1B], for which the IC50 stood at 74 nM.

On to `NC(=O)c1cc(-c2ccc(F)cc2F)c2c(n1)O[C@@H](CNCC(F)(F)F)CC2` (single isomer, unassigned) [Example 4-2B], for which the IC50 was determined as 28 nM.

As to `NC(=O)c1cc(-c2ccc(F)cc2F)c2c(n1)[C@H]1CC[C@@H]2O1` (single isomer, unassigned) [Example 5-1A], the IC50 came out at 159 nM.

Consider `NC(=O)c1cc(-c2ccc(F)cc2F)c2c(n1)[C@@H]1CC[C@H]2O1` (single isomer, unassigned) [Example 5-1B], for which the IC50 was determined as 500 nM.

For the molecule `NC(=O)c1cc(-c2ccc(F)cc2F)c2c(n1)COCC2` [Example 1-1, 4-(2,4-difluorophenyl)-5,8-dihydro-6H-pyrano[3,4-b]pyridine-2-carboxamide], the IC50 worked out at 277 nM.
